The source made the active and inactive calls.
How the values were obtained:
[1] = target: Eukaryotic translation initiation factor 4E (Mus musculus, UniProt P63073); assay: eIF4E–eIF4G protein interaction inhibitors, dose response, biochemical, TR-FRET (AID 855); format: functional;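 note: potency for disrupting eIF4E binding to eIF4GI seen as loss of FRET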
[2] = target: T1, Adenosylmethionine-8-amino-7-oxononanoate aminotransferase (Mycobacterium tuberculosis, UniProt P9WQ81); assay: Mycobacterium tuberculosis BioA enzyme inhibitor Measured in Biochemical System Using Plate Reader - 2163-02_Inhibitor_Dose_CherryPick_Activity.; format: functional, Mycobacterium tuberculosis UT205
T1 sequence (P9WQ81 whole entry): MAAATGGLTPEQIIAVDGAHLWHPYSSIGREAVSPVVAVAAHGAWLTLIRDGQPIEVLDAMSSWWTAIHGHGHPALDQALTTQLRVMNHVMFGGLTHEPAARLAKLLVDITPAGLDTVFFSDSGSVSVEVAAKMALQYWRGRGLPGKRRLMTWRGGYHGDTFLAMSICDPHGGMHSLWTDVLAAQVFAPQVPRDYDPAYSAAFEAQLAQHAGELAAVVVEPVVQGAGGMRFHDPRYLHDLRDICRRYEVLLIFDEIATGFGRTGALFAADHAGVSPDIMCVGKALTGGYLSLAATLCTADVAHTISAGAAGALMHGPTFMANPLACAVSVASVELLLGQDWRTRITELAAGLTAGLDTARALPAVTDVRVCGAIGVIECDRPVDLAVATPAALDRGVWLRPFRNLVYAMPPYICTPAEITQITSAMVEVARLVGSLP

cells [3] = format: functional, cell-based
Escherichia coli = assay: microbe, parasite or virus in culture
cells [4] = format: functional, cell-based; remark: listed apart in the source
[5] = inhibitors of firefly luciferase expression or activity, dose response, H4 neuroglioma cells, luminescence (AID 1990); format: functional, cell-based
[6] = inhibitors of SNCA 5'UTR-driven reporter translation, confirmation, H4 neuroglioma cells, luminescence (AID 1988); format: functional, cell-based
BJ [7] = assay: cytotoxicity toward BJ-TERT fibroblasts, dose response, cell-based, RAS-independent, luminescence (AID 1933); format: functional; conditions: Homo sapiens
[8] = target: T2, Replicative DNA helicase DnaB (Mycobacterium tuberculosis, UniProt P9WMR3); assay: DnaB intein splicing inhibitors, dose response, biochemical, cell-free fluorescence (AID 449749); format: functional
T2 sequence (P9WMR3 whole entry): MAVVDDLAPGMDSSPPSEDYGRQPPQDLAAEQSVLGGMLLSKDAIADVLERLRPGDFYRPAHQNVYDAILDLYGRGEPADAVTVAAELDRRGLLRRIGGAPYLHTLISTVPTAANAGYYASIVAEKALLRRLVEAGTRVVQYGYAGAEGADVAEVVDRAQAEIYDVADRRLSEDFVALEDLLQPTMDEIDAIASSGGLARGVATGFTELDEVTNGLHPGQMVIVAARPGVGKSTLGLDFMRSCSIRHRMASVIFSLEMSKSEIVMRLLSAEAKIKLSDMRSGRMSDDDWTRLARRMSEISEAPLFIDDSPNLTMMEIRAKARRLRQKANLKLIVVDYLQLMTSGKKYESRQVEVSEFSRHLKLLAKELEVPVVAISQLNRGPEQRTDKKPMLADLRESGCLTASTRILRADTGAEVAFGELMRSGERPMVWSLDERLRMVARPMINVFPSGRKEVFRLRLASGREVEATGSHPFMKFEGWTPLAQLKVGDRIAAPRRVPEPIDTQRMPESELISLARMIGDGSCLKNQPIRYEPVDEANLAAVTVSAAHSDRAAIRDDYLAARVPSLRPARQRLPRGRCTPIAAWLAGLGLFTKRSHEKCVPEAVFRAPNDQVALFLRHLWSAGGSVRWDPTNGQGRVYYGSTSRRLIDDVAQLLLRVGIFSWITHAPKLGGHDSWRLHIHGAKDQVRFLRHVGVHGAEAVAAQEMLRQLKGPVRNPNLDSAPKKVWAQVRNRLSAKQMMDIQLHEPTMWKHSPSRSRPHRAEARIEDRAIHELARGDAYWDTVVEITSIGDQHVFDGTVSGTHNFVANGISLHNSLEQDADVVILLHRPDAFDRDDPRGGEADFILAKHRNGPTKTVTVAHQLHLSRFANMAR

[9] = cytotoxicity toward DRD oncogenic fibroblasts, dose response, cell-based, non-viral oncogenic, luminescence (AID 1934); format: functional; conditions: Homo sapiens
[10] = Luminescence Cell-Based Dose Response HTS to Identify Inhibitors of 5'UTR Stem-Loop Driven Prion Protein mRNA Translation in H4 Neuroglioblastoma Cells. [Related pubchem assays: 1827 (Project Summary), 1813 (Primary HTS)]; format: functional
BJ [11] = assay: cells; format: functional, cell-based; conditions: Homo sapiens
BJ [12] = assay: cytotoxicity toward BJ-TERT-LT-ST fibroblasts, dose response, cell-based, RAS-independent, luminescence (AID 1935); format: functional; conditions: Homo sapiens;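 note: BJ fibroblasts immortalized with TERT plus LT and ST oncogenes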
INS1 = assay: beta cell apoptosis inhibitors, cytokine rescue, dose response, luminescence, retest (AID 449756); format: functional, cell-based; conditions: Rattus norvegicus;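 note: cell death triggered by IL-1 beta plus TNF-alpha plus IFN-gamma mixture; protective hits raise ATP signal compared with cytokine alone wells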
Protein RecA = target: T3, Protein RecA (Mycobacterium tuberculosis, UniProt P9WHJ3); assay: Fluorescence Cell-Free Homogeneous Dose Retest to Identify Inhibitors of RecA-Intein Splicing Activity. [Related pubchem assays (depositor defined):AID2097, AID2223, AID489010, AID492950]; format: functional
T3 sequence (P9WHJ3 whole entry): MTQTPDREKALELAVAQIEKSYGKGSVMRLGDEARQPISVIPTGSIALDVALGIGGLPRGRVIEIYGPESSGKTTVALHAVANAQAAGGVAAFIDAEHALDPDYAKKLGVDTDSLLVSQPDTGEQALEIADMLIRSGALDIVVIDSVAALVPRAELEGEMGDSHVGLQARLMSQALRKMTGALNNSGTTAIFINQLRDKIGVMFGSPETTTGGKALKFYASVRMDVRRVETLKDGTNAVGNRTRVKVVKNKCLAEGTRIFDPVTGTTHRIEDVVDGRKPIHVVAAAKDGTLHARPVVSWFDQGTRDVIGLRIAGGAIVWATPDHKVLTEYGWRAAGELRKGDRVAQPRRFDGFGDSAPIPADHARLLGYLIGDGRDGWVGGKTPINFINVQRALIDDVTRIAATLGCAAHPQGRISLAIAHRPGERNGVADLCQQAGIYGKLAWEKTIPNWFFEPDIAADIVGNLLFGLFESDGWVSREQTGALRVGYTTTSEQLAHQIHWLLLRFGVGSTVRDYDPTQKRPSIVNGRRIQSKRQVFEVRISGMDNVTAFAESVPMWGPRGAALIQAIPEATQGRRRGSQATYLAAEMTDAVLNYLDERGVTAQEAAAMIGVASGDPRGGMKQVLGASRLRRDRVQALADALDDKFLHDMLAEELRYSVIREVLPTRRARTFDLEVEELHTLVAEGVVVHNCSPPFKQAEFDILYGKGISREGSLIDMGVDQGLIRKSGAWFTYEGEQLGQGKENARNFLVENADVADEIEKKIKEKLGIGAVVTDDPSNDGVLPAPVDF

[13] = target: T4, COUP transcription factor 2 (Homo sapiens, UniProt P24468); assay: Luminescence-based cell-based high throughput dose response assay to identify inhibitors of COUP-TFII (NR2F2).; format: functional;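 note: HEK293 cells transiently cotransfected with COUP-TFII expression vector and reporter; luciferase reporter luminescence driven by COUP-TFII from the pX2-168 reporter plasmid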
T4 sequence (P24468 whole entry): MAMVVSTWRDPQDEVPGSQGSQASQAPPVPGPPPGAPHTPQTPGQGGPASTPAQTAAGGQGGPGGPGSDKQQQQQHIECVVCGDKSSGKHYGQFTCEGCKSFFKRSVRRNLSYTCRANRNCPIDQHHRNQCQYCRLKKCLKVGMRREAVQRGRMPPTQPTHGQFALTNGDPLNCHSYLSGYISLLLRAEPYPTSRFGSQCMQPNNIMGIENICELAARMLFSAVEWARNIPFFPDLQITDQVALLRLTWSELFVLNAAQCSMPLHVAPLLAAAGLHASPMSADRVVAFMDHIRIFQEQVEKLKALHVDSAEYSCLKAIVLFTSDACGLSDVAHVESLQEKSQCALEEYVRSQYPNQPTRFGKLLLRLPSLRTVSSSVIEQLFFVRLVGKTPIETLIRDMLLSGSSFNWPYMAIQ

[14] = target: Photoreceptor-specific nuclear receptor (Homo sapiens, UniProt Q9Y5X4); format: functional, cell-based;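 note: CHO-S cells with Gal4-NCOR and VP16-NR2E3 two-hybrid luciferase reporter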
Photoreceptor-specific nuclear receptor, sequence (Q9Y5X4 whole entry, the tested form may be a part): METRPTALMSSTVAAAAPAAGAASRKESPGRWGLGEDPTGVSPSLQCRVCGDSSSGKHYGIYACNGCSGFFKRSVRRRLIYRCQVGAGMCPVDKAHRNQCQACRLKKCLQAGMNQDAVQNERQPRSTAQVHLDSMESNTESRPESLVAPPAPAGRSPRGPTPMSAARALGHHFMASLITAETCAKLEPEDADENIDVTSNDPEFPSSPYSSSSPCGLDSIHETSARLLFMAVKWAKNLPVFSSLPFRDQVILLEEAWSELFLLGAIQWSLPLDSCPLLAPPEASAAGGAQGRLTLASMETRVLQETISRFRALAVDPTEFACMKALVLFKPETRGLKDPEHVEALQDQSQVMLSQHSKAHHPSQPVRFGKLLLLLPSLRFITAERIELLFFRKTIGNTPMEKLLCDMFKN

[15] = target: Ras and Rab interactor 1/Tyrosine-protein kinase ABL1 (Homo sapiens, UniProt P00519+Q13671); format: functional;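 note: biochemical TR-FRET dose-response test measuring inhibition of binding between Rin1 and Abl proteins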
Ras and Rab interactor 1/Tyrosine-protein kinase ABL1, sequence (P00519 whole entry): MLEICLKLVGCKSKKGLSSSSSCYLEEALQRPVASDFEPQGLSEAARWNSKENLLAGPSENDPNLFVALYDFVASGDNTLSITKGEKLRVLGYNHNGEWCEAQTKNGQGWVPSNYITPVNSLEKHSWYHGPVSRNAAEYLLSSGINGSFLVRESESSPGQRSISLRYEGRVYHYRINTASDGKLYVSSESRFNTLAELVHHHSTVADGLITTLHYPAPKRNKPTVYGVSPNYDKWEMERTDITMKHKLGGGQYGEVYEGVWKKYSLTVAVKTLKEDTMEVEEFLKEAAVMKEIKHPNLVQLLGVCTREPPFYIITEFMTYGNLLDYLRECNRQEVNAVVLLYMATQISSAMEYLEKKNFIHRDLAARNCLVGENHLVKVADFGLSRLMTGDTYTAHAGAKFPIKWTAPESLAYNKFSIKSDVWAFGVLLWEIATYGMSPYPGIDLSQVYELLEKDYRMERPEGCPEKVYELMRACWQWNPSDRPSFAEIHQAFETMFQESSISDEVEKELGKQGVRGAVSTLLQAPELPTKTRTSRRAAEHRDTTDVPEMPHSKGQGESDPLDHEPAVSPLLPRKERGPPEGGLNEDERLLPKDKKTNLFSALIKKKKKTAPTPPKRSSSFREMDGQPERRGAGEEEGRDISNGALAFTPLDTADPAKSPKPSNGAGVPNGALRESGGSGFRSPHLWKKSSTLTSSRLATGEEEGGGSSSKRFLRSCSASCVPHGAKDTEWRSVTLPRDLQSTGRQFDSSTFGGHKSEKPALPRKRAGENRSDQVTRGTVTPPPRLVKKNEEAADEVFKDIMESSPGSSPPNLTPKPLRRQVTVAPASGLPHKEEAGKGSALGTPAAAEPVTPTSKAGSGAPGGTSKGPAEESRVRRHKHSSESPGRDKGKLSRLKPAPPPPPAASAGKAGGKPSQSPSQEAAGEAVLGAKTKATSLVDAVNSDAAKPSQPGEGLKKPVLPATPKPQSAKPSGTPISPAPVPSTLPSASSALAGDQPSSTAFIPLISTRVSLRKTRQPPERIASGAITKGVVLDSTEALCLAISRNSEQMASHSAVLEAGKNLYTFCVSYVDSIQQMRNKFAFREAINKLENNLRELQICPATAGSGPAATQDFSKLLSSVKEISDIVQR
Ras and Rab interactor 1/Tyrosine-protein kinase ABL1, sequence (Q13671 whole entry): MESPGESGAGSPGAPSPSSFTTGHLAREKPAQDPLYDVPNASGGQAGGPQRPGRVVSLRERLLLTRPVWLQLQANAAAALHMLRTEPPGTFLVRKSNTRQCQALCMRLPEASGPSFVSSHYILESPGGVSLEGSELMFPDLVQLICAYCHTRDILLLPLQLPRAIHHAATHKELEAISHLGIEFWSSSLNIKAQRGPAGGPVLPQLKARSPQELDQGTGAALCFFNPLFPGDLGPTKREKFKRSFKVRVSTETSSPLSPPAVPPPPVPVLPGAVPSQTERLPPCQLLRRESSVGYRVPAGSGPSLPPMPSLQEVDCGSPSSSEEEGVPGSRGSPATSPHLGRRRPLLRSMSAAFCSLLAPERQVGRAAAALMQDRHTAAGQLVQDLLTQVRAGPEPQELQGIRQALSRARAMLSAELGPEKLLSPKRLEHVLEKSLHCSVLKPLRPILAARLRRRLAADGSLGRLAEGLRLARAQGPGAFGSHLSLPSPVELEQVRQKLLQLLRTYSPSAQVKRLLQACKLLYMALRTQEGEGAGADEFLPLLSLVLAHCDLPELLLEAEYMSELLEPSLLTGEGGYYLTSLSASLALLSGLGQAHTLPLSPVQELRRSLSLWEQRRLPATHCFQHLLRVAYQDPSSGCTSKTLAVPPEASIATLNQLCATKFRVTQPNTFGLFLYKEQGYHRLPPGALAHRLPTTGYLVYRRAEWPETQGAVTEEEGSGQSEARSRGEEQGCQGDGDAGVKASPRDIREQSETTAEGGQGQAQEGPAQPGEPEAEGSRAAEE

Paired box protein Pax-8 = Paired box protein Pax-8 (Homo sapiens, UniProt Q06710); assay: inhibitors of PAX8-driven TPO luciferase reporter, dose response, RMG-I cells, cherry-pick (AID 687027); format: functional, cell-based;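 note: luciferase reporter driven by Pax8 target thyroperoxidase promoter measured by SteadyGlo luminescence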
Paired box protein Pax-8, sequence (Q06710 whole entry): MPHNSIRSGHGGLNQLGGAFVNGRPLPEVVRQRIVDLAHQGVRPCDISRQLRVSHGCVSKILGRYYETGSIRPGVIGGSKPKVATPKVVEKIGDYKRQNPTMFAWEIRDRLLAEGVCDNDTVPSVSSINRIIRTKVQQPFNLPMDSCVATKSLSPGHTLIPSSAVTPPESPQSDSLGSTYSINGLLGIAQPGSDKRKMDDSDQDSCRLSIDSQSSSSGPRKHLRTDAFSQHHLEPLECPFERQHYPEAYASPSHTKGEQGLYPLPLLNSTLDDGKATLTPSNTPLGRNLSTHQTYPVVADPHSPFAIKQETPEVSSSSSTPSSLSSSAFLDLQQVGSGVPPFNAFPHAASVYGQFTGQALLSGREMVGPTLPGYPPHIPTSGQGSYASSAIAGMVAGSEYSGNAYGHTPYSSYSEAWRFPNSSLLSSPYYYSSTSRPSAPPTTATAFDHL

Vero = assay: cells; format: functional; conditions: Chlorocebus sabaeus
[16] = Fluorescence-based cell-based high throughput dose response assay for inhibitors of the interaction of nucleotide-binding oligomerization domain containing 2 (NOD2) and the receptor-interacting serine-threonine kinase 2 (RIPK2).; format: functional; conditions: Homo sapiens
P388/ADR = assay: cells; format: functional; conditions: Mus musculus
P388 = assay: cells; format: functional; conditions: Mus musculus
[17] = target: Heat shock protein HSP 90-alpha (Homo sapiens, UniProt P07900); format: functional, organism-based

Eukaryotic translation initiation factor 4E, sequence (P63073 whole entry): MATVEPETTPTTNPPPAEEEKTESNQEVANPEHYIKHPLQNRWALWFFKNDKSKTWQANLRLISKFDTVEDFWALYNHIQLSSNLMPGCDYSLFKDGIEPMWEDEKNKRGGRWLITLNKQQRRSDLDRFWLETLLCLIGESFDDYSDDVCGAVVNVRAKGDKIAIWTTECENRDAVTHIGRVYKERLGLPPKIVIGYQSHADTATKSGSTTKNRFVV

Cc1nc(C(C)(C)O)n(-c2ccccc2)n1
IC50 [1]: > 64 µM (inactive)

CC1CN(C(=O)Nc2ccc3snnc3c2)c2ccccc21 (stereo not drawn)
AC50 [2]: 0.212 µM (active)

CCn1c(SCC(=O)Nc2ccccc2OC)nc2ccccc2c1=O
IC50 [1]: > 64 µM (inactive)

Cc1cc(C)c(NS(=O)(=O)c2ccc3c(c2)NC(=O)CCS3)c(C)c1
EC50 (cells [3]): > 350 µM (not active) | AC50 (Escherichia coli): 23.1 µM (active) | EC50 (cells [4]): 58.1 µM (active)

O=C(Nc1ccc(F)cc1)NC1CCN(Cc2nnnn2Cc2ccco2)CC1
AC50 [2]: 3.58 µM (active)

N#CC(C#N)=C(Nc1ccc(F)cc1)SCc1cccc(Br)c1
EC50 [5]: 11.2 µM (active) | EC50 [6]: 13.5 µM (active) | EC50 (BJ [7]): 11.8 µM (inconclusive) | AC50 [8]: 3.08 µM (active) | EC50 [9]: 21.7 µM (active) | EC50 [10]: 0.272 µM (active) | EC50 (BJ [11]): 22.2 µM (active) | EC50 (BJ [12]): 22.5 µM (active) | AC50 (INS1): 2.92 µM (active) | EC50 (Protein RecA): 2.38 µM (active) | IC50 [13]: 11.3 µM (inactive)

COc1cc(NC(=O)C2CCCCC2)c(OC)cc1NC(=O)c1ccco1
AC50 (Escherichia coli): 30.6 µM (active)

Cc1onc(-c2ccccc2)c1C(=O)Nc1nc(-c2cc(F)ccc2F)cs1
AC50 (Escherichia coli): 38.9 µM (active)

O=C(CN1C(=O)C(c2ccc(F)cc2)=NC12CCCC2)Nc1ccc(F)cc1
IC50 [14]: 2.93 µM (active)

Cc1ccc(Cc2c(C)nc3nc(SCC(=O)NCCN4CCOCC4)nn3c2C)cc1
AC50 [2]: 12.6 µM (active)

Nc1nnc(CC(=O)N2CCCCC2)s1
IC50 [1]: > 64 µM (inactive)

CCOC(=O)CCCCC(=O)c1[nH]c(=O)[nH]c1CSc1nc(C)cc(C)n1
IC50 [15]: 2.39 µM (active)

O=C1CNC(=O)N1CC(O)Cn1c2ccccc2c2ccccc21 (stereo not drawn)
IC50 [15]: 11.9 µM (inactive)

COc1ccc(CC2C(=O)NC(C)C(=O)N(C)C3Cc4ccc(cc4)Oc4cc(ccc4O)CC(C(=O)NC(C)C(=O)NC(C)C(=O)N2C)N(C)C3=O)cc1 (stereo not drawn)
AC50 (Paired box protein Pax-8): < 0.26 µM (active) | CC50 (Vero): 3.44 µM (active) | IC50 [16]: 49.8 µM (inactive) | GI50 (P388/ADR): 3.94 µM (inactive) | GI50 (P388): 0.0175 µM (active)

CC1CC(C)C(=NNC(N)=O)C(C(O)CC2CCC(=O)NC2=O)C1 (stereo not drawn)
CC50 (Vero): > 25 µM (active) | AC50 [17]: < 0.195 µM (active) | IC50 [14]: 2.53 µM (active)

CS(=O)(=O)c1ccc(Cl)c(NC(=O)COC(=O)CCc2c[nH]c3ccccc23)c1
AC50 (Escherichia coli): 31.5 µM (active)

C[C@@H]1CCCCO[C@@H](CN(C)S(=O)(=O)c2ccccc2)[C@@H](C)CN([C@H](C)CO)C(=O)c2cc(NS(=O)(=O)c3ccc(F)cc3)ccc2O1
IC50 [15]: 1.9 µM (active)

O=C(c1cc(COc2cccc3cccnc23)on1)N1CCC[C@H]1CO
IC50 [15]: 2.94 µM (active)

COCCNC(=O)C[C@@H]1CC[C@@H]2[C@@H](COc3ccc(NC(=O)Nc4cccc(F)c4)cc3C(=O)N2C)O1
AC50 [2]: 10.8 µM (active)

O=[N+]([O-])c1cccc(-c2ccc(/C=N/n3c(S)nnc3-c3ccccc3)o2)c1
IC50 [1]: > 64 µM (inactive)

From ChEMBL document CHEMBL1201862, “PubChem BioAssay data set” (2004)
